Experimental data: patent US10544143B2, “4-azaindole compounds” (BRISTOL-MYERS SQUIBB COMPANY, priority 2017, dated 2020)

How the values were obtained:
[1] = molecular target: human TLR9 (Homo sapiens (Human), UniProt Q9NR96); experiment: TLR9 inhibition reporter assay (HEK-Blue SEAP); details: read-out: TLR9 IC50; HEK-Blue cells overexpressing human TLR9, ODN2006 5 nM stimulation, SEAP reporter;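 also: SEAP driven by an IFN-β minimal promoter with NF-κB and AP-1 sites, read after 22 h, compounds dosed 0.05 nM–50 µM, inhibition scaled between agonist plus DMSO and reference-inhibitor wells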
Sequence of human TLR9 (Q9NR96 26-1032): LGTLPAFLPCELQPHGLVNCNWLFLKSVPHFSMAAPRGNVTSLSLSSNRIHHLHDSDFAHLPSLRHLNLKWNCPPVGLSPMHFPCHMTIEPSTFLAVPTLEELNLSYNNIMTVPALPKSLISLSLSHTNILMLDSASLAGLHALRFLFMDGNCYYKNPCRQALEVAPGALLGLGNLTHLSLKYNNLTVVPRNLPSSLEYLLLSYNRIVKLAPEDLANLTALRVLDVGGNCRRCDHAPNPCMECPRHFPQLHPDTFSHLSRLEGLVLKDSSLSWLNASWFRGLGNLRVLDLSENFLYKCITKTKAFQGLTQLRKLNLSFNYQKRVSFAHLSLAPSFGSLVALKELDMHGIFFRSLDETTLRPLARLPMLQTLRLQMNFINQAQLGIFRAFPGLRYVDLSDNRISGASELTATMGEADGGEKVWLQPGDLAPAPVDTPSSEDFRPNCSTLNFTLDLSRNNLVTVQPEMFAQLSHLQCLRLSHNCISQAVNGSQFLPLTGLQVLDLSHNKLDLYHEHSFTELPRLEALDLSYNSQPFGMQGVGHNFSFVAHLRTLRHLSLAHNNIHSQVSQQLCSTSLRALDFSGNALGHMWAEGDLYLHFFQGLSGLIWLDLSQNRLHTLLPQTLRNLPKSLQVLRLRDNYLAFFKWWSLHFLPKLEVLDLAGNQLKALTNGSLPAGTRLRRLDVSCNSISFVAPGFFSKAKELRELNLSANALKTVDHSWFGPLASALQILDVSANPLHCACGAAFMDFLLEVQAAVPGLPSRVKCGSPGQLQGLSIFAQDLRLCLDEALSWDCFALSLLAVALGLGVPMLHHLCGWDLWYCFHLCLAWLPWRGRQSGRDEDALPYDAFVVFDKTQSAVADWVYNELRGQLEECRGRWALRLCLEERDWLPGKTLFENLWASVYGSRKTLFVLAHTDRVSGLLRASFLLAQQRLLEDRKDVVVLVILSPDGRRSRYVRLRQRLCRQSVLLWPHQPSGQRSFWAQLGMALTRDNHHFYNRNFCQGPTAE

[2] = molecular target: human TLR7 (Homo sapiens (Human), UniProt Q9NYK1); experiment: TLR7 inhibition reporter assay (HEK-Blue SEAP); format: cell-based; details: HEK-Blue cells overexpressing human TLR7, gardiquimod 7.5 μM stimulation, SEAP reporter
Sequence of human TLR7 (Q9NYK1 27-1049): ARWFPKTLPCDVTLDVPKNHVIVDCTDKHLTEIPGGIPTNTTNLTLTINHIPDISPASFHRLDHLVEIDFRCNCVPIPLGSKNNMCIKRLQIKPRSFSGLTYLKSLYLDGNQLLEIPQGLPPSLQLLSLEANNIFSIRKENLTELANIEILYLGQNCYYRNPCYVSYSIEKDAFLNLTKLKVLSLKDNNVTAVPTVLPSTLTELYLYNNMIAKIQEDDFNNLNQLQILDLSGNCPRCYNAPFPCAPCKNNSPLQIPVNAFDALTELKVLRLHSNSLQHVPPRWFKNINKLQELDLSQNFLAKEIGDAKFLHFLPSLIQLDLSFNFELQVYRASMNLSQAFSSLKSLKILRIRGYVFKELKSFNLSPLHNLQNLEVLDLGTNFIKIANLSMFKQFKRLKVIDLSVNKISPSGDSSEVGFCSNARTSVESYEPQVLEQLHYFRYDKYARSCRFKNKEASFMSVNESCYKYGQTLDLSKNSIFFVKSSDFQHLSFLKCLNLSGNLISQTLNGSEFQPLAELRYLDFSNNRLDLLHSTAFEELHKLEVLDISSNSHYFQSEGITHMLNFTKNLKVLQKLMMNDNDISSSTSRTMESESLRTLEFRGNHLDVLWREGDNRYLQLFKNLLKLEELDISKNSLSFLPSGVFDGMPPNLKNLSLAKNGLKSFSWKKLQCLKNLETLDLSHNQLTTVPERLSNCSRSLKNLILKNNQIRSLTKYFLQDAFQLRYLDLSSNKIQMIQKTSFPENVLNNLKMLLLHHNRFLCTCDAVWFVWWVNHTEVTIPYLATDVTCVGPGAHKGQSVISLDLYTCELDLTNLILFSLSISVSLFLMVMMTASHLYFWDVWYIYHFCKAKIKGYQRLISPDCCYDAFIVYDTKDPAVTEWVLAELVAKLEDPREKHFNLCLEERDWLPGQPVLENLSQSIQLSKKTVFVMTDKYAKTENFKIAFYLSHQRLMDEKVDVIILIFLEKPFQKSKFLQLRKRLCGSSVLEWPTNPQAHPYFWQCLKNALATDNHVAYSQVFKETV

[3] = molecular target: human TLR8 (Homo sapiens (Human), UniProt Q9NR97); experiment: TLR8 inhibition reporter assay (HEK-Blue SEAP); details: read-out: TLR8 IC50; HEK-Blue cells overexpressing human TLR8, R848 15.9 μM stimulation, SEAP reporter;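 also: SEAP driven by IFN-β minimal promoter carrying NF-κB and AP-1 sites, compounds dosed 0.05 nM to 50 µM for 22 h, inhibition scaled between agonist-plus-DMSO and reference-inhibitor wells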
Sequence of human TLR8 (Q9NR97 27-1041): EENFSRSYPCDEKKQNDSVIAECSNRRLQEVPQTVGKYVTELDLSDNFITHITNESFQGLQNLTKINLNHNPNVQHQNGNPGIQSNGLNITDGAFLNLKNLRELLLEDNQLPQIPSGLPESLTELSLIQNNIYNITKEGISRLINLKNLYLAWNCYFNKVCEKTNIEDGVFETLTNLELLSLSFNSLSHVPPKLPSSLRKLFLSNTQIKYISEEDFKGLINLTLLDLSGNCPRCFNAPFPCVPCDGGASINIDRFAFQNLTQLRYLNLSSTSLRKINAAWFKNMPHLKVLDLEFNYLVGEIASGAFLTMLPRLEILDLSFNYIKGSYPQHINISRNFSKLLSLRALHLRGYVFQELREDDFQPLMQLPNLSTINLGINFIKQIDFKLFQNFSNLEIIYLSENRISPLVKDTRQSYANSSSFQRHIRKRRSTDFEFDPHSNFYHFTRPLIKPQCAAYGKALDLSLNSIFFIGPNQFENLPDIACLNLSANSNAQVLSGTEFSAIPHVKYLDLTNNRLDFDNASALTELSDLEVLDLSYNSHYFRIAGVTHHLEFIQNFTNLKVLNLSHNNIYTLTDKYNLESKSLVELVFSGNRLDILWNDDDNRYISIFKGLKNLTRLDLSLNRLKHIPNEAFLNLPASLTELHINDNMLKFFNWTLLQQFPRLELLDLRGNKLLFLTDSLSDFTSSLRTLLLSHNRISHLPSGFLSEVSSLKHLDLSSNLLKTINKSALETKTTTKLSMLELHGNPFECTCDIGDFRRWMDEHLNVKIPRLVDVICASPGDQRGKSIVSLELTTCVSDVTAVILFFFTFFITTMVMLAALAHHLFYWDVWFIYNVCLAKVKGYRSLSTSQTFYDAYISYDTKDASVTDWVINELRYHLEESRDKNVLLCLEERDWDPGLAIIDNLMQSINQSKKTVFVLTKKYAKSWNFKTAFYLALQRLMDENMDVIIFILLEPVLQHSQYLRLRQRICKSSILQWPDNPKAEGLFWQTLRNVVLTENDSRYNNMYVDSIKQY
Method: HEK-Blue™-cells (Invivogen) overexpressing human TLR7, TLR8 or TLR9 receptors were used for screening inhibitors of these receptors using an inducible SEAP (secreted embryonic alkaline phosphatase) reporter gene under the control of the IFN-β minimal promoter fused to five NF-κB and AP-1-binding sites. Briefly, cells are seeded into Greiner 384 well plates (15000 cells per well for TLR7, 20,000 for TLR8 and 25,000 for TLR9) and then treated with test compounds in DMSO to yield a final dose response concentration range of 0.05 nM-50 μM. After a 30 minute compound pre-treatment at room temperature, the cells are then stimulated with a TLR7 ligand (gardiquimod at a final concentration of 7.5 μM), TLR8 ligand (R848 at a final concentration of 15.9 μM) or TLR9 ligand (ODN2006 at a final concentration of 5 nM) to activate NF-κB and AP-1 which induce the production of SEAP. After a 22 hour incubation at 37° C., 5% CO2, SEAP levels are determined with the addition of HEK-Blue™ Detection reagent (Invivogen), a cell culture medium that allows for detection of SEAP, according to manufacturer's specifications.

| Compound | IC50 [1] [nM] | IC50 [2] [nM] | IC50 [3] [nM] |
| --- | --- | --- | --- |
| COc1cc(-c2[nH]c3ccc(N4CCN(C(C)C)CC4)nc3c2C(C)C)cn2ncnc12 [Example 92] | 3990 | 0.87 | 0.78 |
| COc1cc(-c2[nH]c3ccc(N4CCN(CC#N)CC4)nc3c2C(C)C)cn2ncnc12 [Example 94] | 9350 | 1 | 1.4 |
| COc1cc(-c2[nH]c3ccc(N4CCN(CCS(C)(=O)=O)CC4)nc3c2C(C)C)cn2ncnc12 [Example 95] | > 50000 | 4.9 | 3.6 |
| COc1cc(-c2[nH]c3ccc(N4CCN(C(=O)CCN(C)C)CC4)nc3c2C(C)C)cn2ncnc12 [Example 99] | 4300 | 0.51 | 2.9 |
| COc1cc(-c2[nH]c3ccc(N4CCN(CC(C)(C)O)CC4)nc3c2C(C)C)cn2ncnc12 [Example 106] | 7780 | 2.2 | 0.28 |
| COc1cc(-c2[nH]c3ccc(N4CCN(CC(C)C)CC4)nc3c2C(C)C)cn2ncnc12 [Example 109] | 8010 | 3.6 | 1.3 |
| COc1cc(-c2[nH]c3ccc(N4CCN(CCC(C)C)CC4)nc3c2C(C)C)cn2ncnc12 [Example 110] | 4540 | 1.9 | 0.76 |
| COCC(C)N1CCN(c2ccc3[nH]c(-c4cc(OC)c5ncnn5c4)c(C(C)C)c3n2)CC1 (stereo not drawn) [Example 112] | 6010 | 2.2 | 1.2 |
| COc1cc(-c2[nH]c3ccc(N4CCN(CCC(C)(C)C)CC4)nc3c2C(C)C)cn2ncnc12 [Example 114] | 7590 | 4.7 | 1.8 |
| CCCCN1CCN(c2ccc3[nH]c(-c4cc(OC)c5ncnn5c4)c(C(C)C)c3n2)CC1 [Example 115] | 3480 | 1.2 | 0.49 |
| COc1cc(-c2[nH]c3ccc(N4CCN(CCC(F)(F)F)CC4)nc3c2C(C)C)cn2ncnc12 [Example 116] | 35600 | 9.7 | 5 |
| COc1cc(-c2[nH]c3ccc(N4CCN(C(C)CO)CC4)nc3c2C(C)C)cn2ncnc12 (stereo not drawn) [Example 117] | 5640 | 1.4 | 0.81 |
| COc1cc(-c2[nH]c3ccc(N4CCN(C(C)CCO)CC4)nc3c2C(C)C)cn2ncnc12 (stereo not drawn) [Example 118] | 5580 | 1.8 | 0.86 |
| CC(C)c1c(-c2cn(C)c3ncncc23)[nH]c2ccc(N3CCNCC3)nc12 [Example 122] | 7250 | 1.7 | 1.1 |
| CC(C)c1c(-c2cn(C)c3ncncc23)[nH]c2ccc(N3CCN(C(=O)CN(C)C)CC3)nc12 [Example 123] | 8650 | 1.9 | 6.3 |
| CC(C)c1c(-c2cn(C)c3ncncc23)[nH]c2ccc(N3CCN(C(=O)CCN(C)C)CC3)nc12 [Example 124] | 5790 | 1.2 | 4.7 |
| CC(C)c1c(-c2cn(C)c3ncncc23)[nH]c2ccc(N3CCN(C)CC3)nc12 [Example 125] | 6540 | 2.6 | 0.66 |
| CC(C)c1c(-c2cn(C)c3ncncc23)[nH]c2ccc(N3CCN(C(C)C)CC3)nc12 [Example 126] | 6120 | 5.9 | 1.5 |
| COc1cc(-c2[nH]c3ccc(N4CCN(CC(=O)N(C)C)CC4)nc3c2C(C)C)cn2ncnc12 [Example 128] | 35400 | 5.4 | 2.6 |
| COc1cc(-c2[nH]c3ccc(N4CCN(Cc5cn(C)nn5)CC4)nc3c2C(C)C)cn2ncnc12 [Example 129] | 22800 | 6.7 | 1.3 |
| COc1cc(-c2[nH]c3ccc(N4CCN(CC(N)=O)CC4)nc3c2C(C)C)cn2ncnc12 [Example 130] | > 50000 | 4.3 | 4.7 |
| COCCN1CCN(c2ccc3[nH]c(-c4cc(OC)c5ncnn5c4)c(C(C)C)c3n2)CC1 [Example 131] | 8570 | 3.3 | 0.63 |
| COc1cc(-c2[nH]c3ccc(N4CCN(CCCS(C)(=O)=O)CC4)nc3c2C(C)C)cn2ncnc12 [Example 132] | 7390 | 2.8 | 0.51 |
| COc1cc(-c2[nH]c3ccc(N4CCN(CCNS(C)(=O)=O)CC4)nc3c2C(C)C)cn2ncnc12 [Example 134] | 26100 | 3.7 | 1.1 |
| COc1cc(-c2[nH]c3ccc(N4CCN(CCCC(F)(F)F)CC4)nc3c2C(C)C)cn2ncnc12 [Example 135] | 13200 | 4.7 | 1.6 |
| COc1cc(-c2[nH]c3ccc(N4CCN(CCC(=O)N(C)C)CC4)nc3c2C(C)C)cn2ncnc12 [Example 136] | 8220 | 5.7 | 0.79 |
| COc1cc(-c2[nH]c3ccc(N4CCN(CCC(N)=O)CC4)nc3c2C(C)C)cn2ncnc12 [Example 137] | 8450 | 5.6 | 1.3 |
| CNC(=O)CN1CCN(c2ccc3[nH]c(-c4cc(OC)c5ncnn5c4)c(C(C)C)c3n2)CC1 [Example 138] | > 50000 | 11 | 4.6 |

Now from value to compound:

| IC50 [1] [nM] | IC50 [2] [nM] | IC50 [3] [nM] | Compound |
| --- | --- | --- | --- |
| 6310 | 0.68 | 0.53 | COc1cc(-c2[nH]c3ccc(N4CCN(C)CC4)nc3c2C(C)C)cn2ncnc12 [Example 91] |
| 35000 | 5.3 | 7.2 | COc1cc(-c2[nH]c3ccc(N4CCN(C5COC5)CC4)nc3c2C(C)C)cn2ncnc12 [Example 93] |
| 9430 | 1.5 | 0.28 | Cc1c(-c2[nH]c3ccc(N4CCN(C)CC4)nc3c2C(C)C)cn2ncnc2c1C [Example 96, 6-(3-isopropyl-5-(4-methylpiperazin-1-yl)-1H-pyrrolo[3,2-b]pyridin-2-yl)-7,8-dimethyl-[1,2,4]triazolo[1,5-a]pyridine] |
| > 50000 | 28 | 4.1 | Cc1c(-c2[nH]c3ccc(N4CCN(CC5(C)COC5)CC4)nc3c2C(C)C)cn2ncnc2c1C [Example 97] |
| 5230 | 0.74 | 0.72 | Cc1c(-c2[nH]c3ccc(N4CCN(C(=O)CCN(C)C)CC4)nc3c2C(C)C)cn2ncnc2c1C [Example 98] |
| 6150 | 3.2 | 0.55 | Cc1c(-c2[nH]c3ccc(N4CCN(C(C)C)CC4)nc3c2C(C)C)cn2ncnc2c1C [Example 100] |
| 6400 | 3.7 | 0.25 | Cc1c(-c2[nH]c3ccc(N4CCN(C5CCOCC5)CC4)nc3c2C(C)C)cn2ncnc2c1C [Example 101] |
| > 50000 | 12 | 5.1 | COc1cc(-c2[nH]c3ccc(N4CCN(CC5(C)COC5)CC4)nc3c2C(C)C)cn2ncnc12 [Example 102] |
| 4160 | 2.3 | 0.75 | COc1cc(-c2[nH]c3ccc(N4CCN(C5CCOCC5)CC4)nc3c2C(C)C)cn2ncnc12 [Example 104] |
| 9240 | 3.9 | 0.15 | Cc1c(-c2[nH]c3ccc(N4CCN(CC(C)(C)O)CC4)nc3c2C(C)C)cn2ncnc2c1C [Example 105, 1-(4-(2-(7,8-dimethyl-[1,2,4]triazolo[1,5-a]pyridin-6-yl)-3-isopropyl-1H-pyrrolo[3,2-b]pyridin-5-yl)piperazin-1-yl)-2-methylpropan-2-ol] |
| 5630 | 2.2 | 0.37 | COc1cc(-c2[nH]c3ccc(N4CCN(CC5CCOC5)CC4)nc3c2C(C)C)cn2ncnc12 (stereo not drawn) [Example 107] |
| 3510 | 2.5 | 0.99 | COc1cc(-c2[nH]c3ccc(N4CCN(C5CCC5)CC4)nc3c2C(C)C)cn2ncnc12 [Example 108] |
| 3360 | 1.4 | 0.95 | COc1cc(-c2[nH]c3ccc(N4CCN(C5CCC(O)CC5)CC4)nc3c2C(C)C)cn2ncnc12 (stereo not drawn) [Example 113] |
| 14100 | 1.8 | 0.96 | CCN1CCN(c2ccc3[nH]c(-c4cc(OC)c5ncnn5c4)c(C(C)C)c3n2)CC1 [Example 119] |
| 5490 | 2.3 | 0.6 | COc1cc(-c2[nH]c3ccc(N4CCN(CC5CC5)CC4)nc3c2C(C)C)cn2ncnc12 [Example 120] |
| 6350 | 3.4 | 0.8 | COc1cc(-c2[nH]c3ccc(N4CCN(C5CCN(C(C)=O)CC5)CC4)nc3c2C(C)C)cn2ncnc12 [Example 121] |
| 5900 | 4.6 | 0.48 | CC(C)c1c(-c2cn(C)c3ncncc23)[nH]c2ccc(N3CCN(C4CCOCC4)CC3)nc12 [Example 127] |
| > 50000 | 4.3 | 1.4 | COc1cc(-c2[nH]c3ccc(N4CCN(C5CCS(=O)(=O)CC5)CC4)nc3c2C(C)C)cn2ncnc12 [Example 133] |
| > 50000 | 37 | 14 | Cc1c(-c2[nH]c3ccc(N4CCNCC4=O)nc3c2C(C)C)cn2ncnc2c1C [Example 139] |
| > 50000 | 127 | 186 | Cc1c(-c2[nH]c3ccc(N4CCN(C5COC5)CC4=O)nc3c2C(C)C)cn2ncnc2c1C [Example 140] |
| > 50000 | 134 | 148 | Cc1c(-c2[nH]c3ccc(N4CCN(CC(=O)N(C)C)CC4=O)nc3c2C(C)C)cn2ncnc2c1C [Example 141] |
| > 50000 | 107 | 45 | Cc1c(-c2[nH]c3ccc(N4CCN(C)CC4=O)nc3c2C(C)C)cn2ncnc2c1C [Example 142] |
| > 50000 | 7.8 | 4.5 | Cc1c(-c2[nH]c3ccc(N4CCN(C(=O)CN5CCOCC5)CC4)nc3c2C(C)C)cn2ncnc2c1C [Example 143] |
